The results in this text go back to PubChem BioAssay (NCI).

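Interpolation was linear, between the two tested concentrations surrounding the appropriate level; five concentrations were tested over 48 hours in 96-well plates. The concentration for 50% growth inhibition is given as GI50. At the TGI there is no net growth.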

Among the test systems are MOLT-4 leukemia; HOP-92 NSCLC; LOX IMVI melanoma; SR leukemia; RXF 393 renal; NCI/ADR-RES ovarian; OVCAR-8 ovarian; SNB-75 CNS; IGROV1 ovarian; SW-620 colon.
Common to all, as to test: DTP human tumour cell line panel, 48 h

`Cc1c(NC(=O)Nc2c(Cl)cccc2Cl)c(=O)n(-c2ccccc2)n1C`: the TGI with MOLT-4 leukemia, in the test with HOP-92 NSCLC, in the test with LOX IMVI melanoma, with SR leukemia, in the test on RXF 393 renal and with NCI/ADR-RES ovarian was more than 100 µM each time. Besides, the TGI in the test on OVCAR-8 ovarian, in the test on SNB-75 CNS, in the test on IGROV1 ovarian and with SW-620 colon was more than 100 µM throughout.

As to `[Cl][Hg][c]1ccc2ccccc2c1`, the GI50 in the test on MOLT-4 leukemia was 2.01 µM; with HOP-92 NSCLC, 1.92 µM; in the test on LOX IMVI melanoma it was 0.284 µM; in the test on SR leukemia, 0.257 µM; with RXF 393 renal, 1.62 µM; with NCI/ADR-RES ovarian, 2.41 µM. Besides, the GI50 with OVCAR-8 ovarian is 2.32 µM; in the test on SNB-75 CNS, 2.24 µM; with IGROV1 ovarian it was 1.31 µM; in the test on SW-620 colon, 1.77 µM. In addition, the TGI with MOLT-4 leukemia is 15.2 µM; in the test on HOP-92 NSCLC, 3.46 µM; with LOX IMVI melanoma it was 1.97 µM; in the test with SR leukemia it was 5.86 µM; in the test with RXF 393 renal, 3.04 µM; in the test with NCI/ADR-RES ovarian, 8.84 µM. For the same molecule, the TGI worked out at 6.17 µM in the test with OVCAR-8 ovarian, 5.79 µM in the test on SNB-75 CNS, 3.02 µM with IGROV1 ovarian and 3.62 µM with SW-620 colon.

Regarding `Cn1cc(C2=C(c3cc[nH]c3)C(=O)NC2=O)c2ccccc21`, the GI50 in the test with MOLT-4 leukemia was more than 25 µM; in the test with HOP-92 NSCLC, more than 25 µM; with LOX IMVI melanoma, more than 25 µM; in the test on SR leukemia it was 12 µM; with RXF 393 renal, 18.3 µM; with NCI/ADR-RES ovarian it was more than 25 µM. The GI50 was more than 25 µM in the test with OVCAR-8 ovarian, 1.96 µM in the test with SNB-75 CNS, more than 25 µM in the test on IGROV1 ovarian and more than 25 µM in the test on SW-620 colon. Also, the TGI in the test on MOLT-4 leukemia, with HOP-92 NSCLC, with LOX IMVI melanoma, in the test with SR leukemia, in the test with RXF 393 renal and in the test with NCI/ADR-RES ovarian was more than 25 µM each time. Moreover, the TGI with OVCAR-8 ovarian, in the test with SNB-75 CNS, with IGROV1 ovarian and with SW-620 colon was more than 25 µM throughout.

Consider `CCC[n+]1cc2cc3c(cc2c2c1-c1cc4c(cc1C2)OCO4)OCO3` (tested in a mixture with another compound), for which the GI50 in the test on MOLT-4 leukemia is 0.251 µM; with HOP-92 NSCLC, 0.683 µM; with LOX IMVI melanoma, 3.22 µM; in the test on SR leukemia it was 0.287 µM; in the test on NCI/ADR-RES ovarian, more than 85.5 µM; with OVCAR-8 ovarian it was 0.575 µM. In addition, the figures for the GI50 in the test on SNB-75 CNS and in the test with SW-620 colon were 0.403 µM and 0.733 µM, respectively. The TGI in the test on MOLT-4 leukemia is 3.03 µM; in the test on HOP-92 NSCLC, 4.07 µM; with LOX IMVI melanoma it was 14.3 µM; with SR leukemia, 1.75 µM; in the test with NCI/ADR-RES ovarian, more than 100 µM; with OVCAR-8 ovarian it was 12.2 µM. For the same molecule, the TGI in the test with SNB-75 CNS amounted to 1.38 µM; in the test with IGROV1 ovarian it was 7.81 µM; in the test with SW-620 colon, 12.8 µM.

Take `Cc1ccnc2c(NC(C)CCCN)cc(O)c(O)c12` (centres undefined): the GI50 with MOLT-4 leukemia is 6.61 µM; with LOX IMVI melanoma it was 9.69 µM; in the test with SR leukemia, 29.3 µM; in the test with RXF 393 renal it was 32.3 µM; with NCI/ADR-RES ovarian, 16.3 µM; with OVCAR-8 ovarian, 6.62 µM. Moreover, the GI50 with SNB-75 CNS was 19 µM; in the test with IGROV1 ovarian, 12.5 µM; with SW-620 colon it was 19.6 µM. The TGI with MOLT-4 leukemia was 34.5 µM; in the test with LOX IMVI melanoma, 74.9 µM; in the test with SR leukemia, 90.3 µM; with RXF 393 renal it was more than 100 µM; with NCI/ADR-RES ovarian, more than 100 µM; in the test on OVCAR-8 ovarian it was 82.6 µM. The total growth inhibition concentration (TGI) with SNB-75 CNS came to 81.1 µM; in the test on IGROV1 ovarian, 32.9 µM; in the test with SW-620 colon it was 78.7 µM.

Turning to `COc1cccc(N2CCN(c3ncnc4cc[nH]c34)CC2)c1`, the GI50 in the test on MOLT-4 leukemia is 2.46 µM; in the test on LOX IMVI melanoma it was 13.9 µM; in the test with SR leukemia, 1.73 µM; in the test with RXF 393 renal, 33.6 µM; in the test with NCI/ADR-RES ovarian it was 2.87 µM; with OVCAR-8 ovarian it was 3.46 µM. For the same molecule, the GI50 is 15.1 µM in the test on SNB-75 CNS, 32.2 µM with IGROV1 ovarian and 68.6 µM in the test with SW-620 colon. The TGI with MOLT-4 leukemia was 21.4 µM; in the test on LOX IMVI melanoma it was more than 100 µM; with SR leukemia, more than 100 µM; in the test with RXF 393 renal, more than 100 µM; with NCI/ADR-RES ovarian, 40.4 µM; with OVCAR-8 ovarian, 56.1 µM. The results for the TGI with SNB-75 CNS, in the test on IGROV1 ovarian and in the test on SW-620 colon were 60.4 µM, more than 100 µM and more than 100 µM, respectively.

As to `Cn1c2c(c3ccccc3c1=O)C(=O)c1ccccc1-2`, the TGI in the test with MOLT-4 leukemia, in the test on HOP-92 NSCLC, with LOX IMVI melanoma, in the test on SR leukemia, in the test on NCI/ADR-RES ovarian and in the test with OVCAR-8 ovarian was more than 100 µM in each case. For the same molecule, the TGI in the test with SNB-75 CNS, in the test with IGROV1 ovarian and in the test with SW-620 colon was more than 100 µM each time.

For `COc1c(-c2ccc3c(c2)OCO3)oc2cc(O)cc(O)c2c1=O`, the TGI with MOLT-4 leukemia was more than 100 µM; in the test on HOP-92 NSCLC, more than 100 µM; in the test on LOX IMVI melanoma it was more than 100 µM; with SR leukemia it was more than 100 µM; in the test on RXF 393 renal, 42.5 µM; with NCI/ADR-RES ovarian, more than 100 µM. Moreover, the results for the TGI with OVCAR-8 ovarian, in the test with SNB-75 CNS and in the test with IGROV1 ovarian were more than 100 µM, 53.6 µM and more than 100 µM, respectively.

Regarding `O=C1C(Cl)=C(Nc2cc(Cl)ccc2O)C(=O)N1Cc1ccccc1`, the GI50 in the test on MOLT-4 leukemia was 29.7 µM; in the test with LOX IMVI melanoma, 16.7 µM; with SR leukemia, 38.6 µM; with RXF 393 renal, 14.1 µM; with NCI/ADR-RES ovarian, 18.9 µM; with OVCAR-8 ovarian, 17.5 µM. The GI50 was 27.5 µM in the test with SNB-75 CNS, 5.53 µM in the test on IGROV1 ovarian and 19 µM in the test on SW-620 colon. In addition, the TGI with MOLT-4 leukemia is more than 81.9 µM; in the test with LOX IMVI melanoma it was 32.2 µM; in the test on SR leukemia, more than 67.7 µM; in the test on RXF 393 renal, 30.3 µM; with NCI/ADR-RES ovarian, 37.4 µM; with OVCAR-8 ovarian, 36.4 µM. In addition, the TGI worked out at 64.6 µM with SNB-75 CNS, 26.4 µM in the test with IGROV1 ovarian and 38.5 µM with SW-620 colon.

What is called TGI is the concentration at which net growth stops. A low value points to more potent growth arrest. The GI50 is the concentration giving 50% growth inhibition.
